Measured values published in publication PMC12036557, “Functional Imaging of CYP3A4 at Multiple Dimensions Using an AI‐Driven High Performance Fluorogenic Substrate” (Small (Weinheim an Der Bergstrasse, Germany), 2025).
Where two headings read alike, the source gives them in different places.

What was measured:
[1] = target: T1, CYP3A4 (Homo sapiens, UniProt P08684); assay: in vitro; details: pH 7.4
[2] = system: CYP3A; assay: Functional imaging of CYP3A4 in mouse liver tissue slices; details: pre‐incubated 1 h, inhibitor 20 µM
[3] = system: panel of human recombinant cytochrome P450 enzymes; assay: P450 reaction phenotyping analysis; type: biochemical; details: each recombinant CYP 2.5 nM, 37 °C, 30 min
[4] = system: FMO1, FMO3, FMO5; assay: Oxidative metabolism of NFa in FMOs; type: in vitro ADME; details: NFa 20 μM, NADPH, 30 min
[5] = target: T2, aldehyde oxidase (AO) (Homo sapiens, UniProt Q06278); assay: Oxidative metabolism of NFa in AO (human liver cytosol); type: in vitro ADME; details: NFa 20 μM, human liver cytosol without NADPH, 30 min
T2 construct: The oxidative metabolism of NFa in human liver cytosol (HLC) without NADPH; from tissue; host or cells: human liver cytosol
T2 sequence (Q06278 1-1338): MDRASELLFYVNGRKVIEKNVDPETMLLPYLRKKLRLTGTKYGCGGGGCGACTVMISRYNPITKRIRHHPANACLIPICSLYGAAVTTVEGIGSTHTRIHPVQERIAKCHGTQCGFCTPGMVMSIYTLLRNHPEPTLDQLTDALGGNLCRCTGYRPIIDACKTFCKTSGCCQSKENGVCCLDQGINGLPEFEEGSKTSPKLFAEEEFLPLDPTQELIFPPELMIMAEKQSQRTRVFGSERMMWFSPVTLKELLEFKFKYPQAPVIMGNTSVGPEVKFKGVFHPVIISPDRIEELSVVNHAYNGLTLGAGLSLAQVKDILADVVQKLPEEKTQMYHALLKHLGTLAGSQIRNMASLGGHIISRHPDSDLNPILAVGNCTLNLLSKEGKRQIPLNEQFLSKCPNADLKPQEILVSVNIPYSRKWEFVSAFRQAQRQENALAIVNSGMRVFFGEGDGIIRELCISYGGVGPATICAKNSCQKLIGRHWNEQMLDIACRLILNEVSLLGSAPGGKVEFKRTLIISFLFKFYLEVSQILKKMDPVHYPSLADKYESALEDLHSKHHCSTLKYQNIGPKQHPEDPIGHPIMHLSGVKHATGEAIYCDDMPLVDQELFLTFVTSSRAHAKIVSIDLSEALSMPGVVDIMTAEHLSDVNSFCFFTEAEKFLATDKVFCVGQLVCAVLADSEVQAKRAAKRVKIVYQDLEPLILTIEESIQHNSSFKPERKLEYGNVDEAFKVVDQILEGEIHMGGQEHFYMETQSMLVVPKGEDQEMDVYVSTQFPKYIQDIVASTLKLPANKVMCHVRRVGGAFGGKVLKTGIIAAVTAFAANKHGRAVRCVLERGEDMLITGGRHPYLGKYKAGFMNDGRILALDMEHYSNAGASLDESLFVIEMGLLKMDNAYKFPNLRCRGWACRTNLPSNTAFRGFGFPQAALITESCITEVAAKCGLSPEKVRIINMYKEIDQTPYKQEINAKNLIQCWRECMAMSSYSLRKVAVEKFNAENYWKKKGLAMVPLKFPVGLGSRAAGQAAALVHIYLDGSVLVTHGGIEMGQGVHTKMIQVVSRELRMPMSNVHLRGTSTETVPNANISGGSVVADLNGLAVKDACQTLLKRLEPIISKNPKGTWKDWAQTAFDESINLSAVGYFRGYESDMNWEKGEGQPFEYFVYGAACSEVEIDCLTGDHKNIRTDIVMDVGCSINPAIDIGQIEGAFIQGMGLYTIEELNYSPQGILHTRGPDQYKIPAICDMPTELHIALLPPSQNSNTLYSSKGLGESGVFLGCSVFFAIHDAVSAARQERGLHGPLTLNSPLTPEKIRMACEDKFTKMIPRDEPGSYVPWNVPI

[6] = Optical properties, photostability and pH stability of NFa and 4-HNFa; type: physicochemical; parameters: maximum UV absorption: unit not given here
[7] = system: NCM460 cells; assay: Cell-membrane permeability in NCM460 cells; type: cell-based; details: 20 μM, 60 min
[8] = system: Hep3B cells; assay: Cell-membrane permeability in Hep3B cells; type: cell-based; details: 20 μM, 60 min
[9] = target: T3, P-gp (Homo sapiens, UniProt P08183); assay: Identification of the P-gp substrates in living cells (MDR1-MDCK); type: cell-based; details: with/without verapamil
T3 construct: expressed in transfected cells; host or cells: MDR1-MDCK
T3 sequence (P08183 whole entry): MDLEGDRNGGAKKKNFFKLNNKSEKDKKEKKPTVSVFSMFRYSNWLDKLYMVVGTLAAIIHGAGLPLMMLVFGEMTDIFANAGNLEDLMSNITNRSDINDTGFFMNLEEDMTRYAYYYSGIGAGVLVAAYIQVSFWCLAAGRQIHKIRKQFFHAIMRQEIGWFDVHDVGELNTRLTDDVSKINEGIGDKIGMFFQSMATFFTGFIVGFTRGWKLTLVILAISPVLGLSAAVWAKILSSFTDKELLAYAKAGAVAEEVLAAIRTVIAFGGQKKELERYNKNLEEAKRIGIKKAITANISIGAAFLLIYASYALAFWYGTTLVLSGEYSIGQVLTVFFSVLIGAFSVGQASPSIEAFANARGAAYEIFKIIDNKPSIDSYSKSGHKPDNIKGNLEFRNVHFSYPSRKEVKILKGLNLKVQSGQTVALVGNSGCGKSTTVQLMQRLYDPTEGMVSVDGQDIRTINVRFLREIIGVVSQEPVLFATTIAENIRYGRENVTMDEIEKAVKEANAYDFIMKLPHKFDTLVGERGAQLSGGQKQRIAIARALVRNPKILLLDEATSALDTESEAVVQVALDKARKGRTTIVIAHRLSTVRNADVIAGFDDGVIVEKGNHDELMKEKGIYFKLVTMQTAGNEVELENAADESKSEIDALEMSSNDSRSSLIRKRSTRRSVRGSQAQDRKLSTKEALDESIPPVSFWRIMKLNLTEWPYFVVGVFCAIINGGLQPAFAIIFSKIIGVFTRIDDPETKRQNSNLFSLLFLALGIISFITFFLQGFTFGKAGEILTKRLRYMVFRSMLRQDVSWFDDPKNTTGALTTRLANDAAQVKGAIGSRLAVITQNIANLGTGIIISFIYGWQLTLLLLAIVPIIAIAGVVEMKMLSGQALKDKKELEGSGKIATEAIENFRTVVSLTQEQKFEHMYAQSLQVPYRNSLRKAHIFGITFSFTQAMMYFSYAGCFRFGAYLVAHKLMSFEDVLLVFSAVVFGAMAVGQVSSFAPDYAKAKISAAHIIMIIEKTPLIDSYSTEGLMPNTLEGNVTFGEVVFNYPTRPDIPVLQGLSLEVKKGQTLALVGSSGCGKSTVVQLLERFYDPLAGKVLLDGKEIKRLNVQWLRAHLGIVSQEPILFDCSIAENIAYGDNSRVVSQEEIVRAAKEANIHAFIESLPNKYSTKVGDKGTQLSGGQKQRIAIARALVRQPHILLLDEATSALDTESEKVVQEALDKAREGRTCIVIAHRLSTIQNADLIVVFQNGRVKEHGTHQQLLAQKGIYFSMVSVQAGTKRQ

[10] = system: MCF‐7, Hep3B, and U87 cells; assay: Cytotoxicity assays; type: cell-based
[11] = target: T1, CYP3A4; assay: Functional imaging of hCYP3A4 in living cells; type: cell-based; details: MCF‐7 and Hep3B cells
[12] = In vivo inhibitory effect against CYP3A4 (pharmacokinetics of NFa with inhibitor); parameters: species or system C57 mice; details: C57, mouse, plasma, po, 20 mg/kg, mice plasma; for AUC: read-out: AUC(0‐inf)
[13] = Pharmacokinetics and oral bioavailability of NFa; type: in vivo; details: mice
[14] = Safety test of NFa in healthy mice; type: in vivo, C57BL/6J mice; details: oral 100 mg kg^−1 per day, 14 consecutive days
[15] = target: T1, CYP3A4; assay: Enzyme kinetic analyses of NFs 4-hydroxylation by hCYP3A4; type: biochemical; parameters: purchased Cypex
[16] = target: T1, CYP3A4; assay: Fluorescence response of NFa toward hCYP3A4; type: biochemical; parameters: purchased Cypex
[17] = system: CYP3A4; assay: Liver organ imaging in the presence of CYP3A4 inhibitor (ex vivo); details: mouse, excised whole liver tissue (ex vivo), probe NFa (50 µM); whole mice liver, inhibitor 1 h, NFa 50 µM 30 min; read-out: IC50 (4‐HNFa levels in liver tissue)
[18] = system: CYP3A4; assay: In vivo inhibitory effect against CYP3A4 (pharmacokinetics of NFa with inhibitor); parameters: species or system C57 mice; details: inhibitor 50 mg/kg i.g., NFa 20 mg/kg i.g., mice
[19] = target: T1, CYP3A4; assay: NFa-based inhibition assay in recombinant hCYP3A4; type: biochemical; parameters: purchased Cypex; details: read-out: IC50 against CYP3A4‐catalyzed NFa 4‐hydroxylation
[20] = target: T1, CYP3A4; assay: NFa-based screening and characterizing of hCYP3A4 inhibitors in HLMs; details: human, human liver microsomes, pH 7.4, probe NFa (4-hydroxylation to 4-HNFa)
[21] = target: hCYP3A4 in HLMs (Homo sapiens, UniProt P08684); assay: as above
hCYP3A4 in HLMs, sequence (P08684 whole entry): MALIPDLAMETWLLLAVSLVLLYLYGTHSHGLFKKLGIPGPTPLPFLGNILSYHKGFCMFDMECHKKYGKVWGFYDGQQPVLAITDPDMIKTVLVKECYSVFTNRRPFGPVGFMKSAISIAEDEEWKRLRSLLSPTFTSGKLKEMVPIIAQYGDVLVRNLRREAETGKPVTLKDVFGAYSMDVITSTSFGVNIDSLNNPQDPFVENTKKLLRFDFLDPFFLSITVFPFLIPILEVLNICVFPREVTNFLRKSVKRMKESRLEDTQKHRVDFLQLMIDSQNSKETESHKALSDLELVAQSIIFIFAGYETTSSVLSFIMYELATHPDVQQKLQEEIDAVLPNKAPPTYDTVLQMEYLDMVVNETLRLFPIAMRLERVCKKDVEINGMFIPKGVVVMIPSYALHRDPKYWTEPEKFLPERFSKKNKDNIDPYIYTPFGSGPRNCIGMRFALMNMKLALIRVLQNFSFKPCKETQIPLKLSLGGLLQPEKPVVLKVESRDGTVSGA

[22] = target: T1, CYP3A4; assay: Inhibitory effect of D13 in CHO-3A4 stably transfected cell line; type: cell-based; parameters: expressed in transfected cells; host or cells: CHO-3A4 stably transfected cell line; details: CHO-3A4 cells, D13 1 h, NFa 10 μM 30 min; read-out: inhibitory effect (IC50) in living cells
[23] = system: CYP3A4; parameters: method as in PMID 22971642; details: RTV 50 mg kg^−1, mice; cited from earlier work
[24] = NFa 20 mg/kg i.g. with D13 50 mg/kg i.g.
[25] = NFa 20 mg/kg i.g. with RTV 50 mg/kg i.g.
[26] = NFa 20 mg/kg i.g., control group CMC‐Na
[27] = mouse, plasma, po, 20 mg/kg, i.g.

T1 sequence (P08684 whole entry): as above

Q: Which activity at 30 min, 1 µM [1] does the source give for `CC(=O)N1CCN(c2ccc(OCC3COC(Cn4ccnc4)(c4ccc(Cl)cc4Cl)O3)cc2)CC1` (centres unmarked) [KET, ketoconazole, reference compound] here?
A: Its activity at 30 min, 1 µM is 1.91%.

Q: And the “effect on NFa green signals in mouse liver slices” value [2]?
A: The value was “significantly blocked”.

Q: For `O=C1c2cccc3cccc(c23)C(=O)N1Cc1cscn1` [NFa, N-(4-Thiazolemethanamino)-naphtahlimide], which “isoform specificity as P450 substrate” value [3] is on record?
A: Its value is “highly specific substrates for hCYP3A4”.

Q: And the “participation of FMOs in the oxidative metabolism” value [4]?
A: Its value is “did not participate”.

Q: And the “participation of AO in the oxidative metabolism” value [5]?
A: Its value is “did not participate”.

Q: And the “Molar extinction coefficient ε” value [6]?
A: The value was 44300 M⁻¹ cm⁻¹.

Q: What about the “maximum UV absorption” value [6] of the same molecule?
A: Its value is 340.

Q: And the maximum fluorogenic emission [6]?
A: Its maximum fluorogenic emission is 390 nm.

Q: What about the “enhancement of cell‐membrane permeability versus NEN” value [7] of the same molecule?
A: Its value is 28 fold.

Q: What about the “enhancement of cell‐membrane permeability versus NEN” value [8] of the same molecule?
A: The value was 5.6 fold.

Q: And the “P‐gp substrate status” value [9]?
A: Its value is “non‐substrate for P‐gp”.

Q: What about the cytotoxicity [10] of the same molecule?
A: The cytotoxicity was “weak cytotoxicity”.

Q: And the “Pearson's coefficient of co‐localization with ER‐Tracker Red” value [11]?
A: Its value is 0.99.

Q: What about the Cmax [12, 24] of the same molecule?
A: The Cmax was 498 ± 209 ng/mL.

Q: What about the Tmax [12, 24] of the same molecule?
A: Its Tmax is 0.7 ± 0.27 h.

Q: And the half-life [12, 24]?
A: The half-life was 6.37 ± 4.65 h.

Q: And the AUC [12, 24]?
A: The AUC was 4630 ± 2230 ng·h/mL.

Q: What about the Cmax [12, 25] of the same molecule?
A: The Cmax was 494 ± 131 ng/mL.

Q: And the Tmax [12, 25]?
A: The Tmax was 0.95 ± 0.67 h.

Q: What about the half-life [12, 25] of the same molecule?
A: Its half-life is 8.09 ± 7.52 h.

Q: And the AUC [12, 25]?
A: Its AUC is 5800 ± 5000 ng·h/mL.

Q: And the Cmax [12, 26]?
A: The Cmax was 210 ± 125 ng/mL.

Q: And the Tmax [12, 26]?
A: The Tmax was 1.25 ± 0.61 h.

Q: What about the half-life [12, 26] of the same molecule?
A: The half-life was 2.22 ± 0.94 h.

Q: What about the AUC [12, 26] of the same molecule?
A: The AUC was 642 ± 146 ng·h/mL.

Q: And the Oral bioavailability ([13]; 20 mg/kg i.g. vs 2 mg/kg i.v.)?
A: Its Oral bioavailability is 15.27%.

Q: What about the AUC(0-inf) ([13]; mouse, plasma, iv, 2 mg/kg) of the same molecule?
A: Its AUC(0-inf) is 439 ± 40.7 ng·h/mL.

Q: What about the Cmax ([13]; mouse, plasma, iv, 2 mg/kg) of the same molecule?
A: Its Cmax is 913 ± 116 ng/mL.

Q: What about the Tmax ([13]; mouse, plasma, iv, 2 mg/kg) of the same molecule?
A: The Tmax was 0.083 h.

Q: And the half-life ([13]; mouse, plasma, iv, 2 mg/kg)?
A: Its half-life is 1.24 ± 0.39 h.

Q: What about the bioavailability ([13]; mouse, plasma, oral, 20 mg/kg, 20 mg/kg i.g. vs 2 mg/kg i.v.) of the same molecule?
A: The bioavailability was 15.3%.

Q: And the AUC(0-inf) [13, 27]?
A: Its AUC(0-inf) is 670 ± 232 ng·h/mL.

Q: What about the Cmax [13, 27] of the same molecule?
A: The Cmax was 250 ± 90 ng/mL.

Q: What about the Tmax [13, 27] of the same molecule?
A: The Tmax was 1.17 ± 0.41 h.

Q: What about the half-life [13, 27] of the same molecule?
A: Its half-life is 1.55 ± 0.61 h.

Q: What about the “biochemical assays and H&E staining findings” value [14] of the same molecule?
A: The value was “no haematotoxicity, organ injuries, or apparent abnormalities”.

Q: And the body weight [14]?
A: The body weight was “gradual increase”.

Q: And the mortality [14]?
A: The mortality was “no mortality”.

Q: What about the K m [15] of the same molecule?
A: Its K m is 13.33 ± 1.01 µM.

Q: What about the “limit of detection for sensing hCYP3A4” value [16] of the same molecule?
A: Its value is 0.047 nM.

Q: And the “interference from endogenous fatty acids, amino acids, and cations on NFa 4‐hydroxylation by hCYP3A4” value ([16]; NFa 10 μM, 37 ℃, 30 min)?
A: The value was “no interference”.

Q: And the “enhancement in fluorescence emission ≈555 nM” value ([16]; NFa 10 µM, hCYP3A4 10 nM, 37 °C, 30 min, λex 450)?
A: The value was 154 fold.

Q: Which results are given for `O=C(/C=C/c1ccc2cnccc2c1)c1ccc(N2CCCC2)cc1` [D13, (E)-3-(isoquinolin-6-yl)-1-(4-(pyrrolidin-1-yl)phenyl)prop-2-en-1-one]?
A: IC50 [17]: 270 ± 50 nM; Ratio of AUC(0‐inf) of NFa (inhibitor group / control group) [18]: 7.22; Ratio of C max of NFa (inhibitor group / control group) [18]: 2.37; Ratio of T max of NFa (inhibitor group / control group) [18]: 0.56; Ratio of t 1/2 of NFa (inhibitor group / control group) [18]: 2.87; IC50 [19]: 10.9 nM; activity at 30 min, 1 µM [20]: 4.08%; IC50 [21]: 13.6 nM; Residual activity ([21]; inhibitor 1 μM, HLMs, NFa as fluorogenic substrate): completely inhibited; IC50 [22]: 25.4 nM

Q: Which “increase of AUCinf of midazolam (oral) when co‐administered with RTV” value [23] does the source give for `CC(C)c1nc(CN(C)C(=O)N[C@H](C(=O)N[C@@H](Cc2ccccc2)C[C@H](O)[C@H](Cc2ccccc2)NC(=O)OCc2cncs2)C(C)C)cs1` [RTV, Ritonavir] here?
A: The value was “five‐fold”.
